From patent US20240150293A1, “SPIROCYCLOHEXANE DERIVATIVES, PHARMACEUTICAL COMPOSITIONS CONTAINING THEM AND THEIR USES AS ANTI-APOPTOTIC INHIBITORS” (LES LABORATOIRES SERVIER, priority 2021, published 2024)

Target: Mcl-1 protein (UniProtKB Q07820) (Homo sapiens (Human), UniProt Q07820)
Test: Inhibition of Mcl-1 by the fluorescence polarisation assay (Example A, Method A)
Format: binding
Conditions: fluorescence polarization assay
Summary of the method: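 Protein (5 nM) and fluorescein-tagged peptide tracer (1 nM) incubated with 11-point compound series for 2 h at room temperature in HEPES/NaCl/Tween 20 buffer, pH 7.4, 5% DMSO. Displacement read as decrease in polarisation; IC50 fitted by 4-parameter logistic, converted to Ki (cKi or eKi).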

Mcl-1 protein, sequence (Q07820 whole entry): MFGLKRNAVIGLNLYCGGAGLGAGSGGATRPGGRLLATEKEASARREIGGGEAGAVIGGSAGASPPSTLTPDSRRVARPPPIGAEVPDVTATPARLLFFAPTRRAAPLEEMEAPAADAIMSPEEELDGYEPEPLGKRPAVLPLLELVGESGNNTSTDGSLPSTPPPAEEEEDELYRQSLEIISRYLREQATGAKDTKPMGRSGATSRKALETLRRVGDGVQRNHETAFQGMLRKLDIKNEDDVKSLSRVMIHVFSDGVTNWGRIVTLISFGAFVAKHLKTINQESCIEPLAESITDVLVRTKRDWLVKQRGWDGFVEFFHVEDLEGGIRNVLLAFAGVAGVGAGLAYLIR

Structure (SMILES) | Ki [nM]
O=C(O)[C@]1(Nc2cccc(Cl)c2)CC[C@@]2(CC1)c1ccccc1CC2c1ccc2ccoc2c1 (single isomer, unassigned) [Example 290, (1r,4r)-2′-(1-benzofuran-6-yl)-4-(3-chloroanilino)-2′,3′-dihydrospiro[cyclohexane-1,1′-indene]-4-carboxylic acid] | 14400
O=C(O)[C@]1(Nc2cccc(Cl)c2)CC[C@@]2(CC1)c1ccccc1CC2CCOc1ccccc1 (stereo partly shown) [Example 177, (1r,4r)-4-(3-chloroanilino)-2′-(2-phenoxyethyl)-2′,3′-dihydrospiro[cyclohexane-1,1′-indene]-4-carboxylic acid] | 226
O=C(O)[C@]1(Nc2cccc(Br)c2)CC[C@@]2(CC1)c1ccccc1CC2CCc1cccnc1 (stereo partly shown) [Example 164, (1r,4r)-4-(3-bromoanilino)-2′-[2-(pyridin-3-yl)ethyl]-2′,3′-dihydrospiro[cyclohexane-1,1′-indene]-4-carboxylic acid] | 600
Cc1cncn(CCCC2=Cc3ccccc3[C@]23CC[C@@](Nc2cccc(Cl)c2)(C(=O)O)CC3)c1=O [Example 182, (1r,4r)-4-(3-chloroanilino)-2′-[3-(5-methyl-6-oxopyrimidin-1 (6H)-yl)propyl]spiro[cyclohexane-1,1′-indene]-4-carboxylic acid] | 1620
O=C(O)[C@]1(Nc2cccc(Cl)c2)CC[C@]2(CC1)C(Br)=Cc1ccc(Cl)cc12 [Example 134, (1s,4s)-2′-bromo-6′-chloro-4-(3-chloroanilino)spiro[cyclohexane-1,1′-indene]-4-carboxylic acid] | 265
O=C(O)[C@]1(Nc2cccc(Cl)c2)CC[C@@]2(CC1)c1ccccc1CC2CCCOc1ccc(F)cc1 (stereo partly shown) [Example 425, (1r,4r)-4-(3-chloroanilino)-2′-[3-(4-fluorophenoxy)propyl]-2′,3′-dihydrospiro[cyclohexane-1,1′-indene]-4-carboxylic acid] | 477
COc1ccc2c(c1)[C@]1(CC[C@@](Nc3cccc(Cl)c3)(C(=O)O)CC1)C(c1cccc(C)c1)=C2 [Example 366, (1r,4r)-4-(3-chloroanilino)-6′-methoxy-2′-(3-methylphenyl)spiro[cyclohexane-1,1′-indene]-4-carboxylic acid] | 1390
CCN1c2ccccc2[C@]2(CC[C@](Nc3cccc(Br)c3)(C(=O)O)CC2)C1=O [Example 2, (1r,4r)-4-(3-bromoanilino)-1′-ethyl-2′-oxo-1′,2′-dihydrospiro[cyclohexane-1,3′-indole]-4-carboxylic acid] | 7670
COc1ccc2c(c1)C=C(Br)[C@]21CC[C@](Nc2cccc(Cl)c2)(C(=O)O)CC1 [Example 130, (1s,4s)-2′-bromo-4-(3-chloroanilino)-5′-methoxyspiro[cyclohexane-1,1′-indene]-4-carboxylic acid] | 92.4
O=C(O)[C@]1(Nc2cccc(Cl)c2)CC[C@]2(CC1)C(C1CN(CC(F)(F)F)C1)=Cc1ccccc12 [Example 102, (1r,4r)-4-(3-chloroanilino)-2′-[1-(2,2,2-trifluoroethyl)azetidin-3-yl]spiro[cyclohexane-1,1′-indene]-4-carboxylic acid] | 10700
O=C(O)[C@]1(Nc2cccc(Cl)c2)CC[C@]2(CC1)C(CCOc1ccccc1)=Cc1ccccc12 [Example 171, (1r,4r)-4-(3-chloroanilino)-2′-(2-phenoxyethyl)spiro[cyclohexane-1,1′-indene]-4-carboxylic acid] | 51.4
O=C(O)[C@]1(Nc2cccc(Cl)c2)CC[C@@]2(CC1)c1ccccc1CC2CCOc1ccncc1F (stereo partly shown) [Example 188, (1r,4r)-4-(3-chloroanilino)-2′-{2-[(3-fluoropyridin-4-yl)oxy]ethyl}-2′,3′-dihydrospiro[cyclohexane-1,1′-indene]-4-carboxylic acid] | 214
O=C(O)[C@]1(Nc2cccc(Cl)c2)CC[C@@]2(CC1)c1ccccc1CC2c1cccc(Cl)c1 (single isomer, unassigned) [Example 344, (1r,4r)-4-(3-chloroanilino)-2′-(3-chlorophenyl)-2′,3′-dihydrospiro[cyclohexane-1,1′-indene]-4-carboxylic acid] | 11200
COc1ccc(Cl)c(C2Cc3ccccc3[C@]23CC[C@@](Nc2cccc(Cl)c2)(C(=O)O)CC3)c1 (single isomer, unassigned) [Example 259, (1r,4r)-4-(3-chloroanilino)-2′-(2-chloro-5-methoxyphenyl)-2′,3′-dihydrospiro[cyclohexane-1,1′-indene]-4-carboxylic acid] | 9970
CN(CCc1ccncc1)C(=O)C1Cc2ccccc2[C@]12CC[C@@](Nc1cccc(Cl)c1)(C(=O)O)CC2 (single isomer, unassigned) [Example 404, (1r,4r)-4-(3-chloroanilino)-2′-{methyl[2-(pyridin-4-yl)ethyl]carbamoyl}-2′,3′-dihydrospiro[cyclohexane-1,1′-indene]-4-carboxylic acid] | 7780
Cc1ccccc1C1Cc2ccccc2C12CCC(Nc1cccc(Br)c1)(C(=O)O)CC2 (stereo not shown) [Example 214, 4-(3-bromoanilino)-2′-(2-methylphenyl)-2′,3′-dihydrospiro[cyclohexane-1,1′-indene]-4-carboxylic acid] | 7900
O=C(O)[C@]1(Nc2cccc(Br)c2)CC[C@@]2(CC1)C(C#CCOc1ccccc1)=Cc1ccccc12 [Example 165, (1r,4r)-4-(3-bromoanilino)-2′-(3-phenoxyprop-1-yn-1-yl)spiro[cyclohexane-1,1′-indene]-4-carboxylic acid] | 90400
CCc1ccc2c(c1)[C@]1(CC[C@](Nc3cccc(Br)c3)(C(=O)O)CC1)C(=O)N2C [Example 8, (1r,4r)-4-(3-bromoanilino)-5′-ethyl-1′-methyl-2′-oxo-1′,2′-dihydrospiro[cyclohexane-1,3′-indole]-4-carboxylic acid] | 22500
O=C(O)C1(Nc2cccc(Br)c2)CCC2(C=Cc3cccc(Br)c32)CC1 (single isomer, unassigned) [Example 59, 7′-bromo-4-(3-bromoanilino)spiro[cyclohexane-1,1′-indene]-4-carboxylic acid] | 4210

Further compounds by falling Ki, results first:

Ki [nM] | Structure (SMILES)
15500 | COCCOc1cc(N[C@]2(C(=O)O)CC[C@@]3(CC2)C(Br)=Cc2ccccc23)ccn1 [Example 81, (1s,4s)-2′-bromo-4-{[2-(2-methoxyethoxy)pyridin-4-yl]amino}spiro[cyclohexane-1,1′-indene]-4-carboxylic acid]
11600 | COc1ccc(C2Cc3ccccc3[C@]23CC[C@@](Nc2cccc(Cl)c2)(C(=O)O)CC3)c(C)c1 (single isomer, unassigned) [Example 255, (1r,4r)-4-(3-chloroanilino)-2′-(4-methoxy-2-methylphenyl)-2′,3′-dihydrospiro[cyclohexane-1,1′-indene]-4-carboxylic acid]
11400 | CN(Cc1ccccc1)C(=O)C1=Cc2ccccc2[C@]12CC[C@@](Nc1cccc(Cl)c1)(C(=O)O)CC2 [Example 181, (1s,4s)-2′-[benzyl(methyl)carbamoyl]-4-(3-chloroanilino)spiro[cyclohexane-1,1′-indene]-4-carboxylic acid]
9250 | COc1cccc(N2C(=O)c3ccccc3[C@]23CC[C@@](Nc2cccc(Br)c2)(C(=O)O)CC3)c1 [Example 30, (1s,4s)-4-(3-bromoanilino)-2′-(3-methoxyphenyl)-3′-oxo-2′,3′-dihydrospiro[cyclohexane-1,1′-isoindole]-4-carboxylic acid]
4680 | CCC1=C(C)[C@]2(CC[C@@](Nc3cccc(Cl)c3)(C(=O)O)CC2)c2ccccc21 [Example 206, (1s,4s)-4-(3-chloroanilino)-3′-ethyl-2′-methylspiro[cyclohexane-1,1′-indene]-4-carboxylic acid]
1020 | COc1ccc(C2=Cc3ccccc3[C@]23CC[C@@](Nc2cccc(Cl)c2)(C(=O)O)CC3)cc1C [Example 225, (1s,4s)-4-(3-chloroanilino)-2′-(4-methoxy-3-methylphenyl)spiro[cyclohexane-1,1′-indene]-4-carboxylic acid]
882 | O=C(O)[C@]1(Nc2cccc(Cl)c2)CC[C@@]2(CC1)c1ccccc1CC2[C@H]1C[C@@H]1COc1cccnc1 (single isomer, unassigned) [Example 116, (1r,4r)-4-(3-chloroanilino)-2′-[(1R*,2S*)-2-{[(pyridin-3-yl)oxy]methyl}cyclopropyl]-2′,3′-dihydrospiro[cyclohexane-1,1′-indene]-4-carboxylic acid]
393 | O=C(O)[C@]1(Nc2cccc(Cl)c2)CC[C@@]2(CC1)c1ccccc1CC2CCCOc1ccc2c(c1)OCO2 (stereo partly shown) [Example 428, (1r,4r)-2′-{3-[(2H-1,3-benzodioxol-5-yl)oxy]propyl}-4-(3-chloroanilino)-2′,3′-dihydrospiro[cyclohexane-1,1′-indene]-4-carboxylic acid]
289 | O=C(O)[C@]1(Nc2cccc(Cl)c2)CC[C@@]2(CC1)c1ccccc1C[C@H]2c1cccc(Cc2ccccc2)c1 [Example 325, (1r,2′S,4S)-2′-(3-benzylphenyl)-4-(3-chloroanilino)-2′,3′-dihydrospiro[cyclohexane-1,1′-indene]-4-carboxylic acid]
164 | CC(F)(COc1ccnc2c1CCC2)CC1Cc2ccccc2[C@]12CC[C@@](Nc1cccc(Cl)c1)(C(=O)O)CC2 (stereo partly shown) [Example 607, (1r,4r)-4-(3-chloroanilino)-2′-{3-[(6,7-dihydro-5H-cyclopenta[b]pyridin-4-yl)oxy]-2-fluoro-2-methylpropyl}-2′,3′-dihydrospiro[cyclohexane-1,1′-indene]-4-carboxylic acid]
96 | O=C(O)[C@]1(Nc2cccc(Cl)c2)CC[C@@]2(CC1)c1ccccc1CC2CCCOc1ccnc2c1CCCC2O (stereo partly shown) [Example 474, (1r,4r)-4-(3-chloroanilino)-2′-{3-[(8-hydroxy-5,6,7,8-tetrahydroquinolin-4-yl)oxy]propyl}-2′,3′-dihydrospiro[cyclohexane-1,1′-indene]-4-carboxylic acid]
82.2 | COc1ccc2c(c1)[C@]1(CC[C@@](Nc3cccc(Cl)c3)(C(=O)O)CC1)C(Br)=C2 [Example 129, (1s,4s)-2′-bromo-4-(3-chloroanilino)-6′-methoxyspiro[cyclohexane-1,1′-indene]-4-carboxylic acid]
